From US5674905A, “Bicyclooctane and bicycloheptane derivatives” (James Black Foundation Limited, priority 1992, dated 1997)

Columns and labels:
CCKA = biological target: T1, CCKA (Cavia porcellus, UniProt Q63931); assay: CCKA binding assay in guinea-pig pancreas membranes ([125I]-CCK8(S)); settings: 150 minutes at 21±3°, 0.375 μM PD134,308, read-out: CCKA pKi (converted)
T1 construct: The pancreatata were removed from male guinea-pigs (200-300 g; Dunkin Hartley); from tissue; host or cells: pancreas membranes of male Dunkin Hartley guinea-pigs
T1 sequence (Q63931 1-430): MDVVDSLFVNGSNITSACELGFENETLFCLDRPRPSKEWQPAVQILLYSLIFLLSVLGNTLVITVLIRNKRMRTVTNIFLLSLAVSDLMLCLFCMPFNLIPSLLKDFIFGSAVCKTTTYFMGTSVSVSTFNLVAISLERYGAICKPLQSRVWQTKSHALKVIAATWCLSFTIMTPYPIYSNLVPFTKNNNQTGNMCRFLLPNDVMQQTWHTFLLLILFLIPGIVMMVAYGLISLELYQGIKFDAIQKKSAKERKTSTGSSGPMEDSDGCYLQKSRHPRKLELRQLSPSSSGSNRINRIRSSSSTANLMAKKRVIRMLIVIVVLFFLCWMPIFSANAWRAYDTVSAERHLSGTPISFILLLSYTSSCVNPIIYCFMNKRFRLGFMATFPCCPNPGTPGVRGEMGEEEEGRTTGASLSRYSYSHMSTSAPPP
Protocol: The compounds of the examples were also tested in a CCKA binding assay as follows:
The pancreatata were removed from male guinea-pigs (200-300 g; Dunkin Hartley) and placed in ice-cold HEPES buffer (pH 7.2 @ 21±3°). The pancreatata were homogenised in 40 ml ice-cold HEPES buffer using a polytron (Brinkmann, PT10, setting 10) 4×1 second. The homogenate was centrifuged at 39,800 g for 15 min at 4°. The supernatant was discarded and the pellet re-suspended using a Teflon-in-glass homogeniser in 20 volumes of fresh buffer and re-centrifuged as above. The final pellet was re-suspended using a Teflon-in-glass homogeniser to a tissue concentration of 1 mg.ml^-1 (original wet weight), and filtered through 500 μm pore-size Nytex mesh.
The membranes (400 μl; containing 0.375 μM PD134,308) are incubated for 150 minutes at 21±3° in a final volume of 0.5 ml with HEPES buffer containing [^125 I]-CCK8 (S)(50 μl; pM) and competing compound. Total and non-specific binding of [^125 I]-CCK8 (S) are defined using 50 μl of buffer and 50 μl of 100 nM L-364,718 respectively. The assay is terminated by rapid filtration through pre-soaked Whatman GF/B filters using a Brandell Cell Harvester. The filters were washed (3×3 ml) with ice-cold 50 mM Tris HCl (pH 7.4 at 4°) and bound radioactivity is determined by counting (1 min) in a gamma counter.

CCKB receptor = biological target: T2, CCKB receptor (Mus musculus, UniProt P56481); assay: radioligand binding assay at the CCKB receptor in mouse cortical membranes ([125I]-CCK8S); settings: 150 min at 21±3°; for Ki: read-out: CCKB pKi (converted)
T2 construct: The cortex was dissected, weighed and homogenised in 40 ml ice-cold buffer; from tissue; host or cells: cerebral cortex membranes of male CD1 mice (Charles River)
T2 sequence (P56481 1-453): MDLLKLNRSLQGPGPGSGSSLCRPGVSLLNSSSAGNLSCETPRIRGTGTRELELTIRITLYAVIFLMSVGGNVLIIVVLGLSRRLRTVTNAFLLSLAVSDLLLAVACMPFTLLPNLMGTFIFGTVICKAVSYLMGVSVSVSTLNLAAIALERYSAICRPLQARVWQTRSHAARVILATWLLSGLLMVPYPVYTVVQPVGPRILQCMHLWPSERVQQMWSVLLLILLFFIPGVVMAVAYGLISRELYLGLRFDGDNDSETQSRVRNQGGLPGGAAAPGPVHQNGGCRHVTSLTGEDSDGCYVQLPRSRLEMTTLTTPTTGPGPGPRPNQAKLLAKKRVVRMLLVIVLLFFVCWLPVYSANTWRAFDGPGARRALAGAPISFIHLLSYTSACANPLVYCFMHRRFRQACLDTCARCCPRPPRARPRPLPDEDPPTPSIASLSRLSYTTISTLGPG
Protocol: The compounds of the examples were tested for binding at the CCKB receptor in mouse cortical membranes by means of a radioligand binding assay. The procedure was as follows:
The whole brains from male mice (CD1 22-25 g; Charles River) were removed and placed in ice-cold buffer (pH7.2 @ 21±3 °) of the following composition (mM); 10 HEPES, 130 NaCl, 4.7 KCl, 5 MgCl2, 1 EDTA and containing 0.25 g.1^-1 bacitracin. The cortex was dissected, weighed and homogenised in 40 ml ice-cold buffer using a Teflon-in-glass homogeniser. The homogenate was centrifuged at 39,800 g for 20 min at @ 4°, the supernatant discarded and the pellet resuspended by homogenisation in fresh buffer. The homogenate was recentrifuged (39,800 g; 20 min @4°) and the final pellet was resuspended in HEPES buffer to give a tissue concentration of 2 mg.ml^-1 (original wet weight).
The membranes ([…]) were incubated for 150 min at 21±3° in a final volume of 0.5 ml with HEPES buffer containing [^125 I]-CCK8S (0.05 ml; 200 pM NEN 2200 Ci.mmol^-1) and competing compound. Total and non-specific binding of [^125 I]-CCK8S were defined using 0.05 ml of buffer and 0.05 ml of […] L-365,260, respectively. The assay was terminated by rapid filtration through pre-soaked Whatman GF/B filters using a Brandell Cell harvester. The filters were washed (3×3 ml) with ice-cold 50 mM Tris-HC1 (pH7.4 @ 4° C.) and bound radioactivity determined by counting (1 min.) in a gamma-counter.

gastrin receptors = biological target: T3, gastrin receptors (Rattus norvegicus, UniProt P30553); assay: gastrin antagonist activity in an immature rat stomach assay (pentagastrin-stimulated acid secretion); settings: isolated immature rat stomach, cumulative pentagastrin dose-response curves; for Kb: read-out: Gastrin pKB (converted)
T3 construct: from tissue; host or cells: isolated perfused whole stomach of immature rats (33-50 g, ca. 21 days old)
T3 sequence (P30553 1-452): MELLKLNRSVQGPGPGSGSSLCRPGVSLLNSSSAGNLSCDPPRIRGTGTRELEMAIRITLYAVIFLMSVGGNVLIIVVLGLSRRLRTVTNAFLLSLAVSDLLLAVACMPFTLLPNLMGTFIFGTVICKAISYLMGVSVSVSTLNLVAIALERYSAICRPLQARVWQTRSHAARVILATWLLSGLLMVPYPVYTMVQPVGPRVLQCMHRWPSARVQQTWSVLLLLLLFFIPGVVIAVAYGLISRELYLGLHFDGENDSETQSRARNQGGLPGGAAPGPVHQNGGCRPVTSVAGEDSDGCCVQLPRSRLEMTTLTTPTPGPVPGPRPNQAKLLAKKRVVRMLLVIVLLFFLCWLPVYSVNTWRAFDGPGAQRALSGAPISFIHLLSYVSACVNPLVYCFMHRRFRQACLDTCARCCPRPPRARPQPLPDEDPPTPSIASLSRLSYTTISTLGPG
Protocol: The compounds of the examples were also tested for gastrin antagonist activity in an immature rat stomach assay. The procedure was as follows:
The oesophagus of immature rats (33-50 g, ca. 21 days old) was ligated at the level of the cardiac sphincter and the duodenal sphincter was cannulated. The stomach was excised and flushed with ca. 1 ml of unbuffered physiological saline solution. The fundus was punctured and cannulated. A further 4-5 ml of unbuffered solution was flushed through the stomach to ensure the preparation was not leaking. The stomach was lowered into a jacketed organ bath containing 40 ml of buffered solution containing 3×10^-8 M 5-methyl-furmethide, maintained at 37° and gassed vigorously with 95% O2 /5% CO2. The stomach was continuously perfused at a rate of 1 ml min^-1 with unbuffered solution gassed with 100% O2 with the perfusate passing over an internally referenced pH-electrode fixed 12 cm above the stomach.
After 120 min of stabilisation the drugs were added directly to the serosal solution in the organ bath and after a further 60 min cumulative pentagastrin dose-response curves were started. Changes in acid secretion were monitored and the curves analysed according to Black et. al., Br. J. Pharmacol., 1985, 86, 581.

O=C1CC2c3ccccc3C1C(C(=O)N1CCC[C@@H]1C(=O)O)C2C(=O)NCC12CC3CC(CC(C3)C1)C2 (single isomer, unassigned) [Example 34, endo-cis-7-(2-R-carboxy-pyrrolidinocarbonyl)-8-(1-adamantylmethylaminocarbonyl)-2-oxo-5,6-benzobicyclo[2.2.2]octane]
Ki (CCKA): 7940 nM
Ki (CCKB receptor): 6310 nM

COC(=O)[C@H](C)NC(=O)C1C2CCC(c3ccccc32)C1C(=O)NCC12CC3CC(CC(C3)C1)C2 (stereo partly drawn) [Example 22, endo-cis-7-(1-S-Methoxycarbonyl-ethylaminocarbonyl)-8-(1-adamantylmethylaminocarbonyl)-2,3-benzobicyclo[2.2.2]octane]
Kb (gastrin receptors): 200 nM
Ki (CCKB receptor): 631 nM

COC(=O)[C@H](C)NC(=O)C1C2CCC(c3ccccc32)C1C(=O)NCC12CC3CC(CC(C3)C1)C2 (stereo partly drawn) [Example 23, exo-cis-7-(1-S-Methoxycarbonyl-ethylaminocarbonyl)-8-(1-adamantylmethylaminocarbonyl)-2,3-benzobicyclo[2.2.2]octane]
Kb (gastrin receptors): 316 nM
Ki (CCKB receptor): 398 nM

COC(=O)[C@H](C)NC(=O)C1C2C=CC(CC2)C1C(=O)NCC12CC3CC(CC(C3)C1)C2 (stereo partly drawn) [Example 24, endo-cis-2-(1-S-Methoxycarbonyl-ethylaminocarbonyl)-3-(1-adamantylmethylaminocarbonyl)-bicyclo[2.2.2]oct-5-ene]
Kb (gastrin receptors): 1260 nM
Ki (CCKB receptor): 10000 nM

O=C(NCC12CC3CC(CC(C3)C1)C2)C1C2C=CC(c3ccccc32)C1C(=O)N1CCC[C@H]1C(=O)O (stereo partly drawn) [Example 26, endo-cis-7-(2-S-carboxy-pyrrolidinocarbonyl)-8-(1-adamantylmethylaminocarbonyl)-5,6-benzo-bicyclo[2.2.2]oct-2-ene]
Kb (gastrin receptors): 1260 nM
Ki (CCKB receptor): 3160 nM

O=C(NCC12CC3CC(CC(C3)C1)C2)C1C2C=CC(c3ccccc32)C1C(=O)N1CCC[C@H]1C(=O)O (stereo partly drawn) [Example 27, exo-cis-7-(2-S-carboxy-pyrrolidinocarbonyl)-8-(1-adamantylmethylaminocarbonyl)-5,6-benzo-bicyclo[2.2.2]oct-2-ene]
Gastrin pKB (gastrin receptors; 60 min): 6.5
CCKB pKi (CCKB receptor): 6.2

O=C(NCC12CC3CC(CC(C3)C1)C2)C1C2C=CC(c3ccccc32)C1C(=O)N1C[C@H](O)C[C@@H]1C(=O)O (stereo partly drawn) [Example 29, exo-cis-7-(2-R-carboxy-4-R-hydroxy-pyrrolidinocarbonyl)-8-(1-adamantylmethylaminocarbonyl)-5,6-benzo-bicyclo[2.2.2]oct-2-ene]
Kb (gastrin receptors): 2000 nM
Ki (CCKB receptor): 2510 nM

COC(=O)[C@@H]1CCCN1C(=O)C1C2C=CC(c3ccccc32)C1C(=O)NCC12CC3CC(CC(C3)C1)C2 (stereo partly drawn) [Example 30, endo-cis-7-(2-S-methoxycarbonyl-pyrrolidinocarbonyl)-8-(1-adamantylmethylaminocarbonyl)-5,6-benzo-bicyclo[2.2.2]oct-2-ene]
Kb (gastrin receptors): 398 nM
Ki (CCKB receptor): 501 nM

C[C@@H](NC(=O)[C@H]1CCCN1C(=O)C1C2CCC(c3ccccc32)C1C(=O)NCC12CC3CC(CC(C3)C1)C2)C(=O)O (stereo partly drawn) [Example 41, cis-exo-7-(2R-(1R-carboxyethylaminocarbonyl)-pyrrolidinocarbonyl)-8-(1-adamantylmethylaminocarbonyl)-2,3-benzobicyclo[2.2.2]octane]
Ki (CCKA): 7940 nM
Ki (CCKB receptor): 5010 nM

O=C(O)CNC(=O)[C@H]1CCCN1C(=O)C1C2CCC(c3ccccc32)C1C(=O)NCC12CC3CC(CC(C3)C1)C2 (stereo partly drawn) [Example 42, cis-exo-7-(2R-carboxymethylaminocarbonyl-pyrrolidinocarbonyl)-8-(1-adamantylmethylaminocarbonyl)-2,3-benzobicyclo[2.2.2]octane]
Ki (CCKA): 6310 nM
Ki (CCKB receptor): 3980 nM

O=C(O)c1cc(NC(=O)[C@H](Cc2ccccc2)NC(=O)C2C3C=CC(c4ccccc43)C2C(=O)NCC23CC4CC(CC(C4)C2)C3)cc(C(=O)O)c1 (stereo partly drawn) [Example 60, exo-cis-7-(1S-(3,5-dicarboxyphenylaminocarbonyl)-2-phenyl-ethylaminocarbonyl)-8-(1-adamantylmethylaminocarbonyl)-5,6-benzobicyclo[2.2.2]oct-2-ene]
Kb (gastrin receptors): 50.1 nM
Ki (CCKB receptor): 316 nM

O=C(O)c1cc(NC(=O)[C@H](Cc2ccccc2)NC(=O)C2C3CCC(c4ccccc43)C2C(=O)NCC23CC4CC(CC(C4)C2)C3)cc(C(=O)O)c1 (stereo partly drawn) [Example 61, exo-cis-7-(1S-(3,5-dicarboxyphenylaminocarbonyl)-2-phenyl-ethylaminocarbonyl)-8-(1-adamantylmethylaminocarbonyl)-2,3-benzobicyclo[2.2.2]octane]
Kb (gastrin receptors): 251 nM
Ki (CCKB receptor): 1000 nM
